Read-outs that look alike come from different tables or passages of the source.
What was measured:
[1] = target: T1, ErbB2 kinase (Homo sapiens, UniProt P04626); assay: EGFR/ErbB2 enzymatic experiment (HTRF kinEASE-TK), ErbB2; format: biochemical; conditions: ErbB2 kinase 0.06 ng/μL, ATP 4 μM; read-out: Kinase IC50 (nM) in vitro ErbB2
T1 construct: The final concentration of ErbB2 kinase was 0.06 ng/μL

[2] = target: EGFR kinase (Homo sapiens, UniProt P00533); assay: EGFR/ErbB2 enzymatic experiment (HTRF kinEASE-TK), EGFR; format: biochemical; conditions: EGFR kinase 0.06 units/μL, ATP 1.65 μM; read-out: Kinase IC50 (nM) in vitro EGFR
Chain of EGFR kinase (P00533 25-1210): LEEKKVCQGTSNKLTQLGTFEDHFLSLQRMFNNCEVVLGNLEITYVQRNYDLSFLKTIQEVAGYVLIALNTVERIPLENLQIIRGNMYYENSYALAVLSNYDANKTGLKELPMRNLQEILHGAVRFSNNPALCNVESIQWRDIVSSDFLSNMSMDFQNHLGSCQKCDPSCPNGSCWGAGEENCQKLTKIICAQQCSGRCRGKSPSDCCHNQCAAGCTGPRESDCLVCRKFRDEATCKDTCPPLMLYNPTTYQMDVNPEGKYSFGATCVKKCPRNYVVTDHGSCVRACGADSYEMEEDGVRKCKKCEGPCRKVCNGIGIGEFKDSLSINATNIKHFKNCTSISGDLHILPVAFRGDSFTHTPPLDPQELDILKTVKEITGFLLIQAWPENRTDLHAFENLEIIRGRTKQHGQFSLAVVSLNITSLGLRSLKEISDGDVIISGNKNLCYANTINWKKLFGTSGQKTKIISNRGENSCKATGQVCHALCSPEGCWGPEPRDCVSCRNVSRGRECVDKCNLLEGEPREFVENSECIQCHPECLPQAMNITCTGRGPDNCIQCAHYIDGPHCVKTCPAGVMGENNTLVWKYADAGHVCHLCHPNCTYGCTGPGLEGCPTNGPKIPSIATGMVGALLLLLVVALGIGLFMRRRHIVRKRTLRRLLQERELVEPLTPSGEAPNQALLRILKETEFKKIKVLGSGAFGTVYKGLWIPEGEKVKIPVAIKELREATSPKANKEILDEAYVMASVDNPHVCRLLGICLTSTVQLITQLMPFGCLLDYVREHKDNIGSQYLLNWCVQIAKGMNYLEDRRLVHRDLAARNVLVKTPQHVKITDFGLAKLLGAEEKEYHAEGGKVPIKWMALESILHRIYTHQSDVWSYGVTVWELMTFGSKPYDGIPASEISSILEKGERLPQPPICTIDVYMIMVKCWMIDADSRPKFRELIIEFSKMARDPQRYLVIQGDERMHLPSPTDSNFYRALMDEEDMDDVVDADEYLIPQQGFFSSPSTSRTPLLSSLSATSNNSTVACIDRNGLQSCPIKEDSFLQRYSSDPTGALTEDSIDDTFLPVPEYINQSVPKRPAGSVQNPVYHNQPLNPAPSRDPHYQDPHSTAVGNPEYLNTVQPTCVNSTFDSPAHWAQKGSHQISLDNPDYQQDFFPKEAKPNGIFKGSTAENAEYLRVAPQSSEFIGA

[3] = system: N87 (human gastric cancer cell NCI-N87); assay: In vitro proliferation inhibition assay of cell lines (CellTiter-Glo), N87; format: cell-based; conditions: N87 cells, 72 hours
In short: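 Cells seeded overnight (BT-474 8.8×10^4 cells/mL, N87 6.6×10^4 cells/mL), then exposed to 9 compound concentrations in duplicate for 72 hours at 37° C, 5% CO2. Viability read by CellTiter-Glo luminescence.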

[4] = system: BT-474 (human breast cancer cell); assay: In vitro proliferation inhibition assay of cell lines (CellTiter-Glo), BT-474; format: cell-based; conditions: BT-474 cells, 72 hours
In short: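 Cells were exposed to nine compound concentrations in duplicate for 72 h at 37 °C and 5% CO2. Viability was read with CellTiter-Glo reagent after equilibration at room temperature.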

[5] = target: T2, CYP3A4 (Homo sapiens, UniProt P08684); assay: Direct inhibition (DI) of CYP3A4 in human liver microsomes; format: in vitro ADME; conditions: human liver microsomes 0.2 mg/mL, 10 μM compound
T2 construct: A system of 100 μL human liver microsomes; from tissue; host or cells: human liver microsomes
T2 sequence (P08684 whole entry): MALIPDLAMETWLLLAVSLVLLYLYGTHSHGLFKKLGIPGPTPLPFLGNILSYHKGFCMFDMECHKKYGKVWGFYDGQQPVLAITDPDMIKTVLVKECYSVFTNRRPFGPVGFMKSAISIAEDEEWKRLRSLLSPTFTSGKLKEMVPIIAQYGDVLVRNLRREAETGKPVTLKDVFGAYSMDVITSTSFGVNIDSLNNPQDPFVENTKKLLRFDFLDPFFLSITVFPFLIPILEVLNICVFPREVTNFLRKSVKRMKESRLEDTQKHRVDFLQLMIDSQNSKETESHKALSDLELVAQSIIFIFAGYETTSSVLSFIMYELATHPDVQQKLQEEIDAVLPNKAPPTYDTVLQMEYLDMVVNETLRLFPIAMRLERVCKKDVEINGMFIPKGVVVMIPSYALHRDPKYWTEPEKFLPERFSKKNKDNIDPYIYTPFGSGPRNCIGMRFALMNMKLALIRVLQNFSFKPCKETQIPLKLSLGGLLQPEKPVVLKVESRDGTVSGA
Protocol: (§1) Study on Direct Inhibition (DI) of CYP3A4, CYP2D6, CYP2C9, CYP2C19, CYP1A2
(§2) A system of 100 μL human liver microsomes (final concentration: 0.2 mg/mL) was used for direct inhibition under warm incubation. The system contained NADPH (final concentration: 1 mM), 10 μM compound, a positive inhibitor cocktail (Ketoconazole 10 μM, Quinidine: 10 μM, Sulfaphenazole: 100 μM, Naphthoflavone: 10 μM, Tranylcypromene 1000 μM), a negative control 10 μM DMSO and mixed probe substrates (Midazolam 10 μM, Testosterone 100 μM, Dextromethophan 10 μM, Diclofenac 20 μM, Phenetin 100 μM, Mephenytoin 100 μM). The reaction was terminated after incubation for 20 minutes. The relative activity of the enzymes was calculated by measuring the relative production of metabolites.

[6] = target: T3, CYP2D6 (Homo sapiens, UniProt P10635); assay: Direct inhibition (DI) of CYP2D6 in human liver microsomes; format: in vitro ADME; conditions: probe Dextromethorphan, human liver microsomes 0.2 mg/mL, 10 μM compound, read-out: Direct inhibition (DI) 2D6 (Dextromethorphan)
T3 construct: A system of 100 μL human liver microsomes; from tissue; host or cells: human liver microsomes
T3 sequence (P10635 whole entry): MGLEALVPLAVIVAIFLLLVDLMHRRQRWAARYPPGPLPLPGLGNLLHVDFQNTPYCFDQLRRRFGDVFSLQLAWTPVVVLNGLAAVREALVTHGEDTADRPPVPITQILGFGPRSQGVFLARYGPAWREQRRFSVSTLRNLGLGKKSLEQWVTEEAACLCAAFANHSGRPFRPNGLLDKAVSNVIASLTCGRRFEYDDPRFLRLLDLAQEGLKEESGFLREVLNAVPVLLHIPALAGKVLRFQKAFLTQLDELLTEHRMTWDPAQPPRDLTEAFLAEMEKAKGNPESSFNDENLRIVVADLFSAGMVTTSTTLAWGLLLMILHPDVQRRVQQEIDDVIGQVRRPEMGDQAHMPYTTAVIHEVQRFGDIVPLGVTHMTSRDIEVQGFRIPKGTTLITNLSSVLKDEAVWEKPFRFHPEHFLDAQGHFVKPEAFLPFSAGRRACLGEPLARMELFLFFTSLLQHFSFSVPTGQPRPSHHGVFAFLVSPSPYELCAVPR
Protocol: as §1, §2

[7] = target: T4, CYP2C9 (Homo sapiens, UniProt P11712); assay: Direct inhibition (DI) of CYP2C9 in human liver microsomes; format: in vitro ADME; conditions: probe Diclofenac, human liver microsomes 0.2 mg/mL, 10 μM compound, read-out: Direct inhibition (DI) 2C9 (Diclofenac)
T4 construct: A system of 100 μL human liver microsomes; from tissue; host or cells: human liver microsomes
T4 sequence (P11712 whole entry): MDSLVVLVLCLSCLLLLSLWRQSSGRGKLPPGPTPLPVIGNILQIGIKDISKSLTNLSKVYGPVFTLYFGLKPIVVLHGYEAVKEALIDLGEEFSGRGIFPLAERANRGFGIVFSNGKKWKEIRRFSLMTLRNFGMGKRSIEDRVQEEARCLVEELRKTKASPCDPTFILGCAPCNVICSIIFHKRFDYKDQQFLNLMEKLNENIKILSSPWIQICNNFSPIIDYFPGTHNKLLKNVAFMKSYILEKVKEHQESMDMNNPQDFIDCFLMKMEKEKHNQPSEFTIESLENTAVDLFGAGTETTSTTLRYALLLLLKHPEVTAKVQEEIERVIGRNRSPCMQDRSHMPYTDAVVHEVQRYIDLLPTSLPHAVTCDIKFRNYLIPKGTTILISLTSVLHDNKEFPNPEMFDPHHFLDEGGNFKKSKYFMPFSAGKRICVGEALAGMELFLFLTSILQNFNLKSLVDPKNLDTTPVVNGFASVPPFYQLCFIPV
Protocol: as §1, §2

[8] = target: T5, CYP1A2 (Homo sapiens, UniProt P05177); assay: Direct inhibition (DI) of CYP1A2 in human liver microsomes; format: in vitro ADME; conditions: probe Phenacetin, human liver microsomes 0.2 mg/mL, 10 μM compound, read-out: Direct inhibition (DI) 1A2 (Phenacetin)
T5 construct: A system of 100 μL human liver microsomes; from tissue; host or cells: human liver microsomes
T5 sequence (P05177 1-516): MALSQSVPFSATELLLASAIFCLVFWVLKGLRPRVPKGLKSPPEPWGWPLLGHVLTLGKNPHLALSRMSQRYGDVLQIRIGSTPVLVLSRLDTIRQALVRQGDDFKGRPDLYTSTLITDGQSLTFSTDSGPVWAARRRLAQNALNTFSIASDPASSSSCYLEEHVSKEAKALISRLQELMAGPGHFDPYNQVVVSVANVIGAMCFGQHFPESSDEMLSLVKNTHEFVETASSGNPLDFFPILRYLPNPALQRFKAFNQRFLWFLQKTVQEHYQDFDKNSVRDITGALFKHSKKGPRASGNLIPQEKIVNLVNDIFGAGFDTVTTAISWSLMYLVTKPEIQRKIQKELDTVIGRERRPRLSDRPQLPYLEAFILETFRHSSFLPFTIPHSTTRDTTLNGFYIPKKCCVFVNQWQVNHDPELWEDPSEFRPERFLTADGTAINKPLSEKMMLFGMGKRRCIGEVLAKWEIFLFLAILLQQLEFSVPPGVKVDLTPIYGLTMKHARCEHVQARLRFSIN
Protocol: as §1, §2

[9] = target: T6, CYP2C19 (Homo sapiens, UniProt P33261); assay: Direct inhibition (DI) of CYP2C19 in human liver microsomes; format: in vitro ADME; conditions: probe Mephenytoin, human liver microsomes 0.2 mg/mL, 10 μM compound, read-out: Direct inhibition (DI) 2C19 (Mephenytoin)
T6 construct: A system of 100 μL human liver microsomes; from tissue; host or cells: human liver microsomes
T6 sequence (P33261 whole entry): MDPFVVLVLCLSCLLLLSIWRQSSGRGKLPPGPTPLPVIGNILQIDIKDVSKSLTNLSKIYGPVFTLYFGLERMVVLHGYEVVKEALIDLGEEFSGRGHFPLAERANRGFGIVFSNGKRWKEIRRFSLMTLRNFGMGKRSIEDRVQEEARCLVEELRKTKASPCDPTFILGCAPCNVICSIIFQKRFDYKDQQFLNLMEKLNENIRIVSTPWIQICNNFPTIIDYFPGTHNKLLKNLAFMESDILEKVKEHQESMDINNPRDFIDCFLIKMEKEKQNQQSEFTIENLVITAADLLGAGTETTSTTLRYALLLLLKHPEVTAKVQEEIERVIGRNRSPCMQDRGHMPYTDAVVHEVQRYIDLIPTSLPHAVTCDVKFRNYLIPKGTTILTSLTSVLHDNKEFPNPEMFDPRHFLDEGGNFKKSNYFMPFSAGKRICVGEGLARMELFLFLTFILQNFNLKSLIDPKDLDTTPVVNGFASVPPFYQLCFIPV
Protocol: as §1, §2

[10] = probe Midazolam, read-out: Direct inhibition (DI) 3A4 (Midazolam)
[11] = probe Testosterone, read-out: Direct inhibition (DI) 3A4 (testosterone)

T1 sequence (P04626 23-1255): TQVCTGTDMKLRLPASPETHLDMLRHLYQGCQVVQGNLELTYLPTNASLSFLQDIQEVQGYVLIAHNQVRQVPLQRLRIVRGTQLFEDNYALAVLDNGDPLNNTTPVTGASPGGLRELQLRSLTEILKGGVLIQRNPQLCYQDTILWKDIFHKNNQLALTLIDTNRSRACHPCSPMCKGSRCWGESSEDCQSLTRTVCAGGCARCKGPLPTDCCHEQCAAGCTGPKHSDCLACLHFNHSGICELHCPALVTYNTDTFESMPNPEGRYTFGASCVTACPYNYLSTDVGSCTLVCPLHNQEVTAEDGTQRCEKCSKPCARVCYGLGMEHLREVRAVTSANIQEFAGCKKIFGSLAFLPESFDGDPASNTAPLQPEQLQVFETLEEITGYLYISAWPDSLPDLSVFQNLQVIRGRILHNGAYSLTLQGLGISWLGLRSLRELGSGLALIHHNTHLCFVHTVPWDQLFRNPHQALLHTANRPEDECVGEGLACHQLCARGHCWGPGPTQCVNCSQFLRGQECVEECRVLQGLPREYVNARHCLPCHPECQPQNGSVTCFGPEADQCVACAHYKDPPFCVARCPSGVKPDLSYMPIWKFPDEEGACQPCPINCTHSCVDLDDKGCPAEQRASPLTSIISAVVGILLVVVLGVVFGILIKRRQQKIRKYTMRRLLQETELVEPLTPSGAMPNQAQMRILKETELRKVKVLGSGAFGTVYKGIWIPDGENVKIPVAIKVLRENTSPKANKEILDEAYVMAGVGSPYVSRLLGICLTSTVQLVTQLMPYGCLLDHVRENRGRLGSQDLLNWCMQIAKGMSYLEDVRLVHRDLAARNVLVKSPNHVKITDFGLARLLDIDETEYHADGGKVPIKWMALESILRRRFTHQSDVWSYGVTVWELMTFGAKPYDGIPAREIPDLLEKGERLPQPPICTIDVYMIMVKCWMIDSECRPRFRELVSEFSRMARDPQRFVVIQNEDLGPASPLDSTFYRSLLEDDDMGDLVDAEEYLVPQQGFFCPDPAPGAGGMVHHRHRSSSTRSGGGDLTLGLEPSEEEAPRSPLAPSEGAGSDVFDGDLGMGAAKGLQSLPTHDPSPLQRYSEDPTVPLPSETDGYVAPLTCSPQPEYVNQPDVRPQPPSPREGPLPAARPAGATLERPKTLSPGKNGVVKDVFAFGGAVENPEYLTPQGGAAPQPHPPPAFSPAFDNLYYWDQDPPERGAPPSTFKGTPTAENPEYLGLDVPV

| Compound | IC50 [1] [nM] | IC50 [2] [nM] | IC50 [3] [nM] | IC50 [4] [nM] | inhibition at 20 min, 10 µM [5, 10] [%] | inhibition at 20 min, 10 µM [5, 11] [%] | inhibition at 20 min, 10 µM [6] [%] | inhibition at 20 min, 10 µM [7] [%] | inhibition at 20 min, 10 µM [8] [%] | inhibition at 20 min, 10 µM [9] [%] |
| --- | --- | --- | --- | --- | --- | --- | --- | --- | --- | --- |
| CCOc1cc2ncnc(Nc3ccc(Oc4cc5nncn5cn4)c(C)c3)c2cc1NC(=O)/C=C/[C@H]1CCCN1C [Final product of Embodiment 18, (R,E)-N-(4-((4-([1,2,4]triazolo[4,3-c]pyrimidin-7-yloxy)-3-methylphenyl)amino)-7-ethoxyquinazolin-6-yl)-3-(1-methylpyrrolidin-2-yl)acrylamide] | 0.513 | 0.358 | 1.58 | 2.1 | 12 | 23 | 4 | 4 | 5 | 8 |
| Cc1cc(Nc2ncnc3ccc(NC(=O)/C=C/[C@H]4CCCN4)cc23)ccc1Oc1ccn2ncnc2c1 [Final product of Embodiment 19, (R,E)-N-(4-((4-([1,2,4]triazolo[1,5-a]pyridin-7-yloxy)-3-methylphenyl)amino)quinazolin-6-yl)-3-(pyrrolidin-2-yl)acrylamide] | 0.716 | 3.97 | 28.4 | 26 | 16 | 38 | 60 | < 0 | 7 | < 0 |
| Cc1cc(Nc2ncnc3ccc(NC(=O)/C=C/[C@H]4CCCN4C)cc23)ccc1Oc1ccn2ncnc2c1 [Final product of Embodiment 20, (R,E)-N-(4-((4-([1,2,4]triazolo[1,5-a]pyridin-7-yloxy)-3-methylphenyl)amino)quinazolin-6-yl)-3-(1-methylpyrrolidin-2-yl)acrylamide] | 0.584 | 3.93 | 2.07 | 3.23 | 0 | 14 | 61 | < 0 | 6 | 7 |
| Cc1cc(Nc2c(C#N)cnc3ccc(NC(=O)/C=C/[C@H]4CCCN4C)cc23)ccc1Oc1cc2nncn2cn1 [Final product of Embodiment 23, (R,E)-N-(4-((4-([1,2,4]triazolo[4,3-c]pyrimidin-7-yloxy)-3-methylphenyl)amino)-3-cyanoquinolin-6-yl)-3-(1-methylpyrrolidin-2-yl)acrylamide] | 7.56 | 1.62 | 5.43 | 4.2 | < 0 | 18 | 13 | 1 | < 0 | 10 |
| Cc1cc(Nc2ncnc3ccc(NC(=O)/C=C/[C@H]4CCCN4C)cc23)ccc1Oc1ccc2nccn2c1 [Final product of Embodiment 24] | 6.46 | 4.08 | 2.93 | 4.6 | 36 | 48 | 90 | 48 | 18 | 36 |
| CN1CCC[C@@H]1/C=C/C(=O)Nc1ccc2ncnc(Nc3ccc(Oc4ccn5ncnc5c4)c(Cl)c3)c2c1 [Final product of Embodiment 26, (R,E)-N-(4-((4-([1,2,4]triazolo[1,5-a]pyridin-7-yloxy)-3-chlorophenyl)amino)quinazolin-6-yl)-3-(1-methylpyrrolidin-2-yl)acrylamide] | 0.83 | 2.52 | 3.55 | 5.23 | < 0 | 5 | 85 | 19 | 2 | 28 |
| CCOc1cc2ncc(C#N)c(Nc3ccc(Oc4cc5nncn5cn4)c(C)c3)c2cc1NC(=O)/C=C/[C@H]1CCCN1 [Final product of Embodiment 32] | 3.13 | 1.06 | 4.2 | 4 | 8 | 11 | 6 | 66 | < 0 | 75 |
| CCOc1cc2ncc(C#N)c(Nc3ccc(Oc4cc5nncn5cn4)c(C)c3)c2cc1NC(=O)/C=C/[C@H]1CCCN1C [Final product of Embodiment 33] | 3.56 | 2.14 | 3.2 | 4.2 | 10 | 17 | 3 | 17 | < 0 | 49 |
| CCOc1cc2ncnc(Nc3ccc(Oc4ccn5ncnc5c4)c(C)c3)c2cc1NC(=O)/C=C/[C@H]1CCCN1 [Final product of Embodiment 38, (R,E)-N-(4-((4-([1,2,4]triazolo[1,5-a]pyridin-7-yloxy)-3-methylphenyl)amino)-7-ethoxyquinazolin-6-yl)-3-(pyrrolidin-2-yl)acrylamide] | 0.5 | 0.6 | 2.4 | 2.8 | 5 | 16 | 24 | 10 | < 0 | 45 |
| Cc1cc(Nc2ncnc3ccc(NC(=O)/C=C/[C@H]4CCCN4C)cc23)ccc1Oc1cc2nccn2cn1 [Final product of Embodiment 41] | 0.6 | 0.6 | 8.5 | 3.9 | < 0 | 6 | 71 | < 0 | < 0 | 1 |
| Cc1cc(Nc2ncnc3ccc(NC(=O)/C(F)=C/[C@H]4CCCN4C)cc23)ccc1Oc1cc2nncn2cn1 [Final product of Embodiment 43] | 2.6 | 4.7 | 1.3 | 1.8 | < 0 | < 0 | 69 | < 0 | < 0 | < 0 |
| CCOc1cc2ncnc(Nc3ccc(Oc4ccn5ncnc5c4)c(C)c3)c2cc1NC(=O)/C(F)=C\[C@H]1CCCN1C [Final product of Embodiment 44] | 2.4 | 32.6 | 1.2 | 2 | < 0 | 13 | 36 | 11 | 12 | 27 |
